Biological target: Cyclin-dependent kinase 6/G1/S-specific cyclin-D1 (Homo sapiens, UniProt Q00534)
Sequence (P24385 whole entry): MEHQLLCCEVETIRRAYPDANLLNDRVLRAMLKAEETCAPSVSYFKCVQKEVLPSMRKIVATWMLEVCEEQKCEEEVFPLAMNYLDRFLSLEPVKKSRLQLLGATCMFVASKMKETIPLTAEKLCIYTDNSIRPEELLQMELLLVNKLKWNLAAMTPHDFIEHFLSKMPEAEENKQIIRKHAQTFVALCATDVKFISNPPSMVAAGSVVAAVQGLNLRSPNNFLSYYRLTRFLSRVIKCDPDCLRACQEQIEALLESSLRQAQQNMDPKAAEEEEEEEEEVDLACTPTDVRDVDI
Sequence (Q00534 whole entry): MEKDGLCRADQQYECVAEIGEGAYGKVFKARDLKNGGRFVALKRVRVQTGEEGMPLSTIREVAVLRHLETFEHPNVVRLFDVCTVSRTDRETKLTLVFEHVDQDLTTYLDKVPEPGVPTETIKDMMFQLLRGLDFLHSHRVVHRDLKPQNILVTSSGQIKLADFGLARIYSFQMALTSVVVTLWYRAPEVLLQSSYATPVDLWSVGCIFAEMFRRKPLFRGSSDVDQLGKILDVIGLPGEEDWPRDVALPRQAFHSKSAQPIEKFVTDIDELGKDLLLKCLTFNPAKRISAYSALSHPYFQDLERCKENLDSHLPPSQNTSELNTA

Row | IC50 [nM] | SMILES
1 | 53 | CC(C)c1nn(C)c2c1-c1nc(Nc3ccc(N4CCNCC4)cn3)ncc1C2 [US11168088, Compound P-16]

Biological target: Cyclin-dependent kinase 2 (Homo sapiens, UniProt P24941)

Row | IC50 [nM] | SMILES
2 | 896 | CCN1CCN(Cc2ccc(Nc3ncc4c(n3)-c3c(nn(CC)c3C(C)C)CC4)nc2)CC1 [US11168088, Compound P-2]
3 | 3000 | CCc1nc2c(n1C(C)C)-c1nc(Nc3ccc(CN4CCN(CC)CC4)cn3)ncc1C2 [US11168088, Compound P-5]
4 | 7980 | CCN1CCN(c2ccc(Nc3ncc4c(n3)-c3c(cnn3C(C)C)CC4)nc2)CC1 [US11168088, Compound P-12]
5 | 8520 | CC(C)n1ncc2c1-c1nc(Nc3ccc(N4CCNCC4)cn3)ncc1CC2 [US11168088, Compound P-25]
6 | 23 | Cc1c2c(nn1C)CCc1cnc(Nc3ccc(CN4CCN(C)CC4)cn3)nc1-2 [US11168088, Compound D1]
